Measured values reported in paper PMC8224385, “X-ray screening identifies active site and allosteric inhibitors of SARS-CoV-2 main protease” (Science (New York, N.y.), 2021).
Counter-ions that a name gives are not always drawn. Like-named read-outs stand apart in the source and are kept apart here.

Legend:
[1] = test system: SARS-CoV-2; test: microbe, parasite or virus in culture; assay type: cell-based; settings: for reduction in infectious particles / antiviral activity (in words): SARS-CoV-2, Vero E6 cells; for reduction in infectious particles: compounds considered antivirally active
[2] = Cell viability of Vero E6 cells (CCK-8 method); settings: African green monkey
[3] = in vitro; settings: African green monkey
[4] = Severe acute respiratory syndrome coronavirus 2, Vero C1008, SARS-CoV-2 infectious particles, Vero E6 cells, immunofocus assay, read-out: EC50 for the viral titer reduction
[5] = Severe acute respiratory syndrome coronavirus 2, Vero C1008, read-out: EC50 for the viral titer reduction

| Compound | reduction in infectious particles [1] | CC50 [2] | EC50 [1, 4] | CC50 [3] | antiviral activity (in words) [1] | EC50 [1, 5] |
| --- | --- | --- | --- | --- | --- | --- |
| CCCC[C@@H](C=O)NC(=O)[C@H](CC(C)C)NC(=O)OCc1ccccc1 [calpeptin] | ≥ 100 fold | > 100 µM | – | – | – | – |
| O=c1n(CC2CO2)c(=O)n(CC2CO2)c(=O)n1CC1CO1 (centres unmarked) [triglycidyl isocyanurate] | ≥ 100 fold | > 100 µM | 30 µM | – | – | – |
| CCOc1cc2ncc(C#N)c(Nc3ccc(F)c(Cl)c3)c2cc1NC(=O)/C=C/CN(C)C [pelitinib] | ≥ 100 fold | – | 1.25 µM | 14 µM | – | – |
| CC(C(O)c1ccc(O)cc1)N1CCC(Cc2ccccc2)CC1 (centres unmarked) [ifenprodil] | ≥ 100 fold | > 100 µM | 46.9 µM | – | – | – |
| PD-168568 | – | – | – | – | inactive | – |
| O=C1Nc2ccccc2C2(CCN(CCc3ccc(C(F)(F)F)cc3)CC2)O1 [RS-102895] | – | 55 µM | – | – | – | 19.8 µM |
| CC(C)c1ccc2c(c1)C(N1CCN(CCO)CC1)Cc1ccc(F)cc1S2 (centres unmarked) [isofloxythepin] | – | – | 4.8 µM | 17 µM | – | – |
| CCc1ccc(Cc2ccc3c(c2)[C@]2(OC3)O[C@H](CO)[C@@H](O)[C@H](O)[C@H]2O)cc1 [tofogliflozin] | – | – | – | – | inactive | – |
| O=C1c2ccccc2CCC1CNCCc1ccc(O)cc1 (stereo not drawn) [HEAT, 2-[β-(4-hydroxyphenyl)-ethylaminomethyl]-tetralone] | – | – | 24.1 µM | 55.4 µM | – | – |
| O=C(NC1CCNCC1)c1n[nH]cc1NC(=O)c1c(Cl)cccc1Cl [AT7519, N-(4-piperidinyl)-4-(2,6-dichlorobenzoylamino)-1H-pyrazole-3-carboxamide] | ≥ 100 fold | – | – | – | – | 25.2 µM |
| c1ccc2nc(N3CCNCC3)ccc2c1 [quipazine maleate] | – | – | 31.6 µM | > 100 µM | – | – |
| Cc1ccc(C(=O)C(C)CN2CCCCC2)cc1 (centres unmarked) [tolperisone] | ≥ 100 fold | – | 19.2 µM | > 100 µM | – | – |
| CCc1cc(O)c(Oc2ccc(C(N)=O)cc2F)cc1F [MUT056399] | ≥ 100 fold | – | 38.2 µM | > 100 µM | – | – |
